The record followed here is US10519154B2, “7-substituted 1-pyridyl-naphthyridine-3-carboxylic acid amides and use thereof” (Bayer Pharma Aktiengesellschaft, priority 2016, dated 2019).

A word on the EC50: it is the concentration at which the effect is half-maximal. A high value points to weaker potency.

Assay [1] concerns the target T1, human M2 receptor (Homo sapiens, UniProt P08172).
T1 sequence (P08172 1-466): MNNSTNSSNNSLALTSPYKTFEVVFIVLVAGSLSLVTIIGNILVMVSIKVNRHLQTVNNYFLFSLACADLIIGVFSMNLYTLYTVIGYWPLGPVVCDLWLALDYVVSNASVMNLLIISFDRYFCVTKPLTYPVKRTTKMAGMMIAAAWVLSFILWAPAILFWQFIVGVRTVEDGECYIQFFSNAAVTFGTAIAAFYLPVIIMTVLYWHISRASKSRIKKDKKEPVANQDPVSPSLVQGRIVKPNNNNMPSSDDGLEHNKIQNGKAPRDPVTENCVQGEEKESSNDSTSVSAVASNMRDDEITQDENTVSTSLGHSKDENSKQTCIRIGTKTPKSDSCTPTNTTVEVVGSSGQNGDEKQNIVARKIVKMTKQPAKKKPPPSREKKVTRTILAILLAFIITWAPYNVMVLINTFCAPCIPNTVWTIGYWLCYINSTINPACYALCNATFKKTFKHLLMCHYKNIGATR
The assay is described as follows: Functional M2-GIRK1/4 activation test: positive cooperativity (alpha factor). To be noted: shift of acetylcholine dose-response curve (Allosteric EC50 shift); CHO-DUKX-M2-GIRK cells.
Excerpt: The binding of orthosteric agonists (endogenous ligand: acetylcholine) to the M2 receptor leads to receptor activation or a change in conformation of the receptor in the manner of a shift in equilibrium in favor of the active receptor conformation.
The agonist-induced change in conformation of the M2 receptor results in a Gαi protein activation. […] Under physiological conditions, the result is then a selective efflux of potassium from the cell along the electrochemical gradient. […] The extent of hyperpolarization can therefore be regarded as a measure of the activation of the M2 receptor.
The test cell used is a recombinant CHO-DUKX cell line which has been stably transfected with cDNA coding for the human M2 receptor and with cDNA coding for both GIRK1/4 subunits (CHO-DUKX-M2-GIRK). The transmembrane potential, or the relative changes in the transmembrane potential as a function of substance addition or M2 activation, is determined by means of a voltage-sensitive dye (FLIPR Membrane Potential Assay Kit Blue, Molecular Devices #R8034) and the measurement of cell fluorescence using a proprietary fluorescence imaging instrument.
In accordance with the desired test concentrations, the substances were pre-diluted in loading buffer (see above).
The sowing medium consisted of MEM alpha medium (supplemented with 5% FCS, 2% Glutamax, no genticin).
For the particular measurement, the medium was removed and the cells were laden with the voltage-sensitive dye for at least 6 min at room temperature (30 μl of loading buffer per 384-well). This was followed, in a first measurement, by the determination of the resting transmembrane potential for a period of 5 sec in 1 sec increments. Thereafter, 10 μl in each case of the test substances diluted in loading buffer are added, followed by a second measurement to determine the transmembrane potential for a period of 50 sec in 1 sec increments.
Finally, the cells are admixed with 10 μl of agonist solution (acetylcholine dissolved in loading buffer). In contrast to the EC50 determination of the test substances (see B-1.1), however, this is not done using one acetylcholine concentration; instead, every concentration of the test substance is combined with an acetylcholine 8-point dose-response curve. […] The M2-mediated GIRK1/4 activation or hyperpolarization is then monitored in a third measurement over a period of 60 sec in 1 sec increments. The shift in the acetylcholine dose-response curve in the presence of increasing concentrations of the test substance is analyzed and quantified by means of GraphPad PRISM (Allosteric EC50 shift). […] Positive cooperativity is the hallmark of a positive allosteric modulator. […] The greater the magnitude of the cc value, the greater the extent of cooperativity between orthosteric and allosteric.

Assay [2] deals with T1, human M2 receptor. The assay is described as follows: Functional M2-GIRK1/4 activation test: allosteric potency (EC50) and efficiency. To be noted: for EC50: Receptor activity EC50, CHO-DUKX-M2-GIRK cells, acetylcholine at EC20, in some cases mean of two or more determinations; for Emax: read-out: Efficiency, boosting of the acetylcholine effect at EC20 acetylcholine concentration.

On to `O=C(NC(c1ccccc1Cl)C(F)(F)F)c1cn(-c2ncc(F)cc2F)c2nc(N3C[C@@H](O)CC3=O)ccc2c1=O` (mixture of isomers) [Example 4, N-[1-(2-Chlorophenyl)-2,2,2-trifluoroethyl]-1-(3,5-difluoropyridin-2-yl)-7-[(4S)-4-hydroxy-2-oxopyrrolidin-1-yl]-4-oxo-1,4-dihydro-1,8-naphthyridine-3-carboxamide], for which, at human M2 receptor [1], the “Cooperativity (alpha factor)” value was found to be 63. Further, the midpoint of the response on human M2 receptor [2], the EC50, lay at 14 nM. For the same compound, the Emax at human M2 receptor [2] (CHO-DUKX-M2-GIRK cells) came to 98.2%.

`CC(C)(C)[C@@H](NC(=O)c1cn(-c2ncc(F)cc2F)c2nc(N3C[C@@H](O)CC3=O)ccc2c1=O)C(F)(F)F` [Example 73, 1-(3,5-Difluoropyridin-2-yl)-7-[(4S)-4-hydroxy-2-oxopyrrolidin-1-yl]-4-oxo-N-[(2R)-1,1,1-trifluoro-3,3-dimethylbutan-2-yl]-1,4-dihydro-1,8-naphthyridine-3-carboxamide]: on human M2 receptor [1], the “Cooperativity (alpha factor)” value worked out at 68. In addition, the EC50 on human M2 receptor [2] is 10 nM. The Emax on human M2 receptor [2] (CHO-DUKX-M2-GIRK cells) worked out at 100%.

As to `O=C(N[C@H](C1CC1)C(F)(F)F)c1cn(-c2ncc(F)cc2F)c2nc(N3C[C@@H](O)CC3=O)ccc2c1=O` [Example 138, N-[(1R)-1-Cyclopropyl-2,2,2-trifluoroethyl]-1-(3,5-difluoropyridin-2-yl)-7-[(4S)-4-hydroxy-2-oxopyrrolidin-1-yl]-4-oxo-1,4-dihydro-1,8-naphthyridine-3-carboxamide], at human M2 receptor [1], the “Cooperativity (alpha factor)” value is 61. On human M2 receptor [2], this compound returned an EC50 of 70 nM. In addition, the Emax on human M2 receptor [2] (CHO-DUKX-M2-GIRK cells) worked out at 98.5%.

With `CC1CC(=O)N(c2ccc3c(=O)c(C(=O)N[C@H](C4CC4)C(F)(F)F)cn(-c4ncc(F)cc4F)c3n2)C1` (mixture of isomers) [Example 27, N-[(1R)-1-Cyclopropyl-2,2,2-trifluoroethyl]-1-(3,5-difluoropyridin-2-yl)-7-[4-methyl-2-oxopyrrolidin-1-yl]-4-oxo-1,4-dihydro-1,8-naphthyridine-3-carboxamide], on human M2 receptor [1], the “Cooperativity (alpha factor)” value is reported as 10. The compound further returned an EC50 on human M2 receptor [2] of 36 nM. Besides, the Emax at human M2 receptor [2] (CHO-DUKX-M2-GIRK cells) worked out at 79%.

For the compound `O=C(NC(c1ccccc1Cl)C(F)(F)F)c1cn(-c2ncc(F)cc2F)c2nc(N3C[C@@H](O)[C@H](O)C3)ccc2c1=O` (single isomer, unassigned) [Example 84], the “Cooperativity (alpha factor)” value at human M2 receptor [1] is 57. On human M2 receptor [2], the EC50 was 20 nM. Moreover, the Emax on human M2 receptor [2] (CHO-DUKX-M2-GIRK cells) turned out to be 100%.

Regarding `CC(C)(C)[C@H](NC(=O)c1cn(-c2ncc(F)cc2F)c2nc(N3C[C@@H](O)CC3=O)ccc2c1=O)C(F)(F)F` [Example 98, 1-(3,5-Difluoropyridin-2-yl)-7-[(4S)-4-hydroxy-2-oxopyrrolidin-1-yl]-4-oxo-N-[(2S)-1,1,1-trifluoro-3,3-dimethylbutan-2-yl]-1,4-dihydro-1,8-naphthyridine-3-carboxamide], the “Cooperativity (alpha factor)” value on human M2 receptor [1] worked out at 56. In addition, the response on human M2 receptor [2] was half-maximal at 23 nM (EC50). Besides, the Emax at human M2 receptor [2] (CHO-DUKX-M2-GIRK cells) was 100%.

Take `CC[C@H](NC(=O)c1cn(-c2ncc(F)cc2F)c2nc(N3CC(C)CC3=O)ccc2c1=O)C(F)(F)F` (stereo partly drawn) [Example 30, 1-(3,5-Difluoropyridin-2-yl)-7-[4-methyl-2-oxopyrrolidin-1-yl]-4-oxo-N-[(2S)-1,1,1-trifluorobutan-2-yl]-1,4-dihydro-1,8-naphthyridine-3-carboxamide]: the “Cooperativity (alpha factor)” value on human M2 receptor [1] is listed as 14. This compound had an EC50 at human M2 receptor [2] of 64 nM. On human M2 receptor [2] (CHO-DUKX-M2-GIRK cells), the Emax turned out to be 99%.

Turning to `CCC(NC(=O)c1cn(-c2ncc(F)cc2F)c2nc(N3CCNC3=O)ccc2c1=O)C(F)(F)C(F)(F)F` (single isomer, unassigned) [Example 165, 1-(3,5-Difluoropyridin-2-yl)-4-oxo-7-(2-oxoimidazolidin-1-yl)-N-[1,1,1,2,2-pentafluoropentan-3-yl]-1,4-dihydro-1,8-naphthyridine-3-carboxamide], the “Cooperativity (alpha factor)” value at human M2 receptor [1] is recorded as 30. Further, on human M2 receptor [2], the EC50 is 13 nM. Besides, the Emax on human M2 receptor [2] (CHO-DUKX-M2-GIRK cells) is 84%.

Consider `CCC(NC(=O)c1cn(-c2ncc(F)cc2F)c2nc(N3C[C@@H](O)CC3=O)ccc2c1=O)C(F)(F)C(F)(F)F` (single isomer, unassigned) [Example 93], for which the “Cooperativity (alpha factor)” value at human M2 receptor [1] is listed as 41. The same compound yielded an EC50 on human M2 receptor [2] of 14 nM. For the same compound, at human M2 receptor [2] (CHO-DUKX-M2-GIRK cells), the Emax was 98%.

For the compound `O=C(NC(C(F)(F)F)C(F)(F)F)c1cn(-c2ncc(F)cc2F)c2nc(N3C[C@@H](O)[C@H](O)C3)ccc2c1=O` [Example 56, 1-(3,5-Difluoropyridin-2-yl)-7-[(3R,4R)-3,4-dihydroxypyrrolidin-1-yl]-N-(1,1,1,3,3,3-hexafluoropropan-2-yl)-4-oxo-1,4-dihydro-1,8-naphthyridine-3-carboxamide], at human M2 receptor [1], the “Cooperativity (alpha factor)” value was 68. Besides, the EC50 at human M2 receptor [2] came out at 34 nM. Besides, the Emax on human M2 receptor [2] (CHO-DUKX-M2-GIRK cells) was determined as 100%.

As to `O=C(NC(c1ccccc1Cl)C(F)(F)F)c1cn(-c2ncc(F)cc2F)c2nc(N3C[C@@H](O)CC3=O)ccc2c1=O` (single isomer, unassigned) [Example 5], on human M2 receptor [1], the “Cooperativity (alpha factor)” value came out at 63. Also, the EC50 on human M2 receptor [2] amounted to 31 nM. For the same compound, the Efficiency on human M2 receptor [2] (boosting of the acetylcholine effect at EC20 acetylcholine concentration, CHO-DUKX-M2-GIRK cells) is 98.25%.

Compound `O=C(NC(C(F)(F)F)C(F)(F)F)c1cn(-c2ncc(F)cc2F)c2nc(N3CC4CC4(O)C3)ccc2c1=O` (racemic) [Example 57, 1-(3,5-Difluoropyridin-2-yl)-N-(1,1,1,3,3,3-hexafluoropropan-2-yl)-7-[1-hydroxy-3-azabicyclo[3.1.0]hex-3-yl]-4-oxo-1,4-dihydro-1,8-naphthyridine-3-carboxamide] returned an EC50 at human M2 receptor [2] of 10 nM. Besides, the Emax at human M2 receptor [2] (CHO-DUKX-M2-GIRK cells) came out at 94%.

On human M2 receptor [2], `CC[C@@H](NC(=O)c1cn(-c2ncc(F)cc2F)c2nc(N3CC4CC4(O)C3)ccc2c1=O)C(F)(F)F` (mixture of isomers) [Example 43, 1-(3,5-Difluoropyridin-2-yl)-7-[1-hydroxy-3-azabicyclo[3.1.0]hex-3-yl]-4-oxo-N-[(2R)-1,1,1-trifluorobutan-2-yl]-1,4-dihydro-1,8-naphthyridine-3-carboxamide] showed an EC50 of 65 nM. In addition, the Emax on human M2 receptor [2] (CHO-DUKX-M2-GIRK cells) was 100%.

The compound `O=C(N[C@@H](C1CC1)C(F)(F)F)c1cn(-c2ncc(F)cc2F)c2nc(N3C[C@H](O)[C@@H](O)C3)ccc2c1=O` [Example 61, N-[(1S)-1-Cyclopropyl-2,2,2-trifluoroethyl]-1-(3,5-difluoropyridin-2-yl)-7-[(3S,4S)-3,4-dihydroxypyrrolidin-1-yl]-4-oxo-1,4-dihydro-1,8-naphthyridine-3-carboxamide] registered an EC50 at human M2 receptor [2] of 795 nM. Moreover, the Emax on human M2 receptor [2] (CHO-DUKX-M2-GIRK cells) was found to be 100%.

At human M2 receptor [2], `O=C(NC(c1cccc(Cl)c1)C(F)(F)F)c1cn(-c2ncc(F)cc2F)c2nc(N3C[C@@H](O)CC3=O)ccc2c1=O` (stereo partly drawn) [Example 7, N-[1-(3-Chlorophenyl)-2,2,2-trifluoroethyl]-1-(3,5-difluoropyridin-2-yl)-7-[(4S)-4-hydroxy-2-oxopyrrolidin-1-yl]-4-oxo-1,4-dihydro-1,8-naphthyridine-3-carboxamide] yielded an EC50 of 22 nM. Moreover, on human M2 receptor [2] (CHO-DUKX-M2-GIRK cells), the Emax turned out to be 100%.

For the compound `O=C(N[C@H](C1CC1)C(F)(F)F)c1cn(-c2ncc(F)cc2Cl)c2nc(N3C[C@@H](O)CC3=O)ccc2c1=O` [Example 21, 1-(3-Chloro-5-fluoropyridin-2-yl)-N-[(1R)-1-cyclopropyl-2,2,2-trifluoroethyl]-7-[(4S)-4-hydroxy-2-oxopyrrolidin-1-yl]-4-oxo-1,4-dihydro-1,8-naphthyridine-3-carboxamide], the EC50 at human M2 receptor [2] came out at 195 nM. Moreover, on human M2 receptor [2] (CHO-DUKX-M2-GIRK cells), the Emax was found to be 98.5%.

Consider `CC[C@@H](NC(=O)c1cn(-c2ncc(F)cc2F)c2nc(N3CCCCC3=O)ccc2c1=O)C(F)(F)F` [Example 34, 1-(3,5-Difluoropyridin-2-yl)-4-oxo-7-(2-oxopiperidin-1-yl)-N-[(2R)-1,1,1-trifluorobutan-2-yl]-1,4-dihydro-1,8-naphthyridine-3-carboxamide], for which the EC50 at human M2 receptor [2] came out at 880 nM. Further, the Emax at human M2 receptor [2] (CHO-DUKX-M2-GIRK cells) was found to be 82%.

In turn, `O=C(N[C@H](C1CC1)C(F)(F)F)c1cn(-c2ncc(F)cc2F)c2nc(N3CCNC3=O)ccc2c1=O` [Example 65, N-[(1R)-1-Cyclopropyl-2,2,2-trifluoroethyl]-1-(3,5-difluoropyridin-2-yl)-4-oxo-7-(2-oxoimidazolidin-1-yl)-1,4-dihydro-1,8-naphthyridine-3-carboxamide] yielded an EC50 at human M2 receptor [2] of 87 nM. In addition, the Emax on human M2 receptor [2] (CHO-DUKX-M2-GIRK cells) is 100%.

`O=C(NC(c1cccc(F)c1)C(F)(F)F)c1cn(-c2ncccc2Cl)c2nc(N3C[C@@H](O)CC3=O)ccc2c1=O` (stereo partly drawn) [Example 23, 1-(3-Chloropyridin-2-yl)-7-[(4S)-4-hydroxy-2-oxopyrrolidin-1-yl]-4-oxo-N-[2,2,2-trifluoro-1-(3-fluorophenyl)ethyl]-1,4-dihydro-1,8-naphthyridine-3-carboxamide] had an EC50 at human M2 receptor [2] of 145 nM. Besides, at human M2 receptor [2] (CHO-DUKX-M2-GIRK cells), the Emax amounted to 92%.

For the compound `O=C(Nc1c(Cl)cccc1Cl)c1cn(-c2ncc(F)cc2F)c2nc(N3C[C@@H](O)[C@@H](O)C3)ccc2c1=O` [Example 66, N-(2,6-Dichlorophenyl)-1-(3,5-difluoropyridin-2-yl)-7-[(3R,4S)-3,4-dihydroxypyrrolidin-1-yl]-4-oxo-1,4-dihydro-1,8-naphthyridine-3-carboxamide], at human M2 receptor [2], a half-maximal response (EC50) required 310 nM. In addition, the Emax on human M2 receptor [2] (CHO-DUKX-M2-GIRK cells) was 92.5%.
